Data set [1] deals with patient derived organoids. As to the kind of experiment: Calculated IC50 of various agents on organoids derived from the chemoresistant patient (PD3D cell culture). The format is cell-based, human. Particulars: organoids of the chemoresistant stage IV patient; for IC50: Homo sapiens. The procedure:
The IC50 values were calculated from such tests. This value indicates the dosage at which 50% of the organoids were killed due to treatment.

The conditions of data set [2]: cited from earlier work.
The test system of data set [3] is patient derived organoids. The format is cell-based, human. Particulars: % of cells that died compared to control; organoids of the chemoresistant patient. How it is done:
In addition to the agents listed above, several other drugs were tested to see if they influenced organoid growth. In this case, results are shown as the % of cells that died compared to control. […] This is consistent with the patient's actual lack of response to treatment with paclitaxel.

The conditions of data set [4]: oral formulations; cited from earlier work.

Read-outs that look alike come from different tables or passages of the source.

For `O=C(Nc1ccc([N+](=O)[O-])cc1Cl)c1cc(Cl)ccc1O` [Niclosamide], the concentration for half-maximal inhibition (IC50) in data set [1] is 0.6 µM. The Cmax in data set [2] (in vivo) was 310 nM. For the molecule `O=C(c1cc(Cc2n[nH]c(=O)c3ccccc23)ccc1F)N1CCN(C(=O)C2CC2)CC1` [Olaparib], the “Calculated IC50 PD3D Cell Culture” value in data set [1] is recorded as “Not Reached”. The Cmax in data set [2] is 17500 nM. As to `Cc1[nH]c2ccccc2c1CCNCc1ccc(/C=C/C(=O)NO)cc1` [Panobinostat], the 50% inhibitory concentration (IC50) in data set [1] is 0.11 µM. Further, in data set [2] (in vivo), the Cmax was 60 nM.

As for `Nc1nc2[nH]cc(CCc3ccc(C(=O)N[C@@H](CCC(=O)O)C(=O)O)cc3)c2c(=O)[nH]1` [Pemetrexed], in data set [1], the “Calculated IC50 PD3D Cell Culture” value is “Not Reached”. For the same molecule, the “% Cell Death” value in data set [3] was “No Response”. The Cmax in data set [2] is 291000 nM. As for `Nc1cccc2c1C(=O)N(C1CCC(=O)NC1=O)C2=O` (centres unmarked) [Pomalidomide], the “Calculated IC50 PD3D Cell Culture” value in data set [1] is listed as “Not Reached”. In data set [2] (in vivo), the highest concentration (Cmax) was 270 nM. With `Cc1ccc(C(=O)Nc2ccc(CN3CCN(C)CC3)c(C(F)(F)F)c2)cc1C#Cc1cnc2cccnn12` [Ponatinib], in data set [2], the Cmax is 137 nM. Consider `CC(C)NCC(O)COc1cccc2ccccc12` (centres unmarked) [Propranolol], for which, in data set [2], the Cmax is 102 nM. Take `N#CC[C@H](C1CCCC1)n1cc(-c2ncnc3[nH]ccc23)cn1` [Ruxolitinib]: the highest concentration (Cmax) in data set [2] is 587 nM. In the case of `CO[C@@H](C)Cn1c(=O)n(C)c2cnc3ccc(-c4cncc(C(C)(C)O)c4)cc3c21` [Samotolisib], the half-inhibitory concentration (IC50) in data set [1] is 0.87 µM. For the same molecule, the highest concentration (Cmax) in data set [2] (in vivo) is 600 nM. With `CCN(CC)CCNC(=O)c1c(C)[nH]c(/C=C2\C(=O)Nc3ccc(F)cc32)c1C` [Sunitnib], the “Calculated IC50 PD3D Cell Culture” value in data set [1] is recorded as “Not Reached”. For the same molecule, the Cmax in data set [2] (in vivo) was 90 nM. With `CCCCCc1cc(O)c2c(c1)OC(C)(C)[C@@H]1CCC(C)=C[C@@H]21` [THC, Δ^9-tetrahydrocannabinol], the “onset to reach peak plasma concentration” value in data set [4] is around 120 min.

Turning to `Cn1nnc2c(C(N)=O)ncn2c1=O` [Temozolomide], the IC50 in data set [1] was 106 µM. Also, the “% Cell Death” value in data set [3] was 40%. The Cmax in data set [2] (in vivo) was 37600 nM. For the molecule `COc1cc2c(cc1O)CCN[C@]21CS[C@@H]2c3c(OC(C)=O)c(C)c4c(c3[C@H](COC1=O)N1[C@@H]2[C@H]2c3c(cc(C)c(OC)c3O)C[C@@H]([C@@H]1O)N2C)OCO4` [Trabectedine], the “% Cell Death” value in data set [3] is reported as 32%.

`CC[C@]1(O)C[C@@H]2CN(CCc3c([nH]c4ccccc34)[C@@](C(=O)OC)(c3cc4c(cc3OC)N(C)[C@H]3[C@@](O)(C(=O)OC)[C@H](OC(C)=O)[C@]5(CC)C=CCN6CC[C@]43[C@@H]65)C2)C1` [Vinblastine]: in data set [3], the “% Cell Death” value came to 38%. `CCC1=C[C@@H]2CN(C1)Cc1c([nH]c3ccccc13)[C@@](C(=O)OC)(c1cc3c(cc1OC)N(C)[C@H]1[C@@](O)(C(=O)OC)[C@H](OC(C)=O)[C@]4(CC)C=CCN5CC[C@]31[C@@H]54)C2` [Vinorelbine]: the “% Cell Death” value in data set [3] is on record as 45%. Same read-out and setting: the result for `COc1cccc2c1C(=O)c1c(O)c3c(c(O)c1C2=O)C[C@@](O)(C(=O)CO)C[C@@H]3O[C@H]1C[C@H](N)[C@@H](O)[C@H](C)O1` [epirubicin] reads “No Response”; that for `C=C1C[C@@H]2CC[C@@]34C[C@H]5O[C@H]6[C@@H](O3)[C@H]3O[C@H](CC[C@@H]3O[C@H]6[C@H]5O4)CC(=O)C[C@@H]3[C@@H](OC)[C@@H](C[C@H](O)CN)O[C@H]3C[C@H]3O[C@@H](CC[C@@H]1O2)C[C@@H](C)C3=C` [eribulin], “No Response”; that for `O=P1(NCCCl)OCCCN1CCCl` (centres unmarked) [ifosfamide], “No Response”. With `CN(Cc1cnc2nc(N)nc(N)c2n1)c1ccc(C(=O)N[C@@H](CCC(=O)O)C(=O)O)cc1` [methotrexate], the “% Cell Death” value in data set [3] is “No Response”.

`CO[C@@]12[C@H](COC(N)=O)C3=C(C(=O)C(C)=C(N)C3=O)N1C[C@@H]1N[C@@H]12` [mitomycin]: the “% Cell Death” value in data set [3] was “No Response”.

For `O=C1[O][Pt]2([NH][C@@H]3CCCC[C@H]3[NH]2)[O]C1=O` [oxaliplatin], the “% Cell Death” value in data set [3] is listed as “No Response”.

In the case of `CC[C@]1(O)C[C@H]2CN(CCc3c([nH]c4ccccc34)[C@@](C(=O)OC)(c3cc4c(cc3OC)N(C=O)[C@H]3[C@@](O)(C(=O)OC)[C@H](OC(C)=O)[C@]5(CC)C=CCN6CC[C@]43[C@@H]65)C2)C1` [vincristine], the “% Cell Death” value in data set [3] was “No Response”. With Bevacizumab, in data set [1], the “Calculated IC50 PD3D Cell Culture” value is “Not Reached”. Further, in data set [2] (in vivo), the maximum concentration (Cmax) is 920 nM. Turning to Bleomycin, the “% Cell Death” value in data set [3] is on record as 53%.

Usually IC50 stands for the concentration that inhibits the measured activity by half. By Cmax is commonly meant the peak of the concentration-time curve.

The values above are taken from patent publication US12251411B2, “Methods of treating endometrial cancer using hemp extract” (Ecofibre USA Inc., priority 2021, dated 2025).
